{"source": "patent EP0845210A1", "about": "“New herbicidal compositions” (RHONE-POULENC AGRICULTURE LTD., priority 1994, dated 1996)", "test_in_all_cases": "Procedure D: pre-emergence field trial (Volga, Brookings), visual assessment about 26 days after treatment", "format_in_all_cases": "in vivo", "key": {"Abutilon theophrasti": {"tested_on": "Abutilon theophrasti", "details": "A 37.5 g/ha alone", "protocol": "(§1) The following experiments were carried out pre-emergence of the weed species. Compound A, formulated as a wettable dispersible granule as described in Example 1 herebelow (750g per kilogram) and each acetochlor (used as the commercially available formulation \"Harness\" (trade mark), an emulsifiable concentrate containing 960g of acetochlor per kilogram, and which also contains the safening agent flurazole, metolachlor (used as the commercially available formulation \"Duelor\" (trade mark), an emulsifiable concentrate emulsifiable concentrate containing 960g of metolachlor per kilogram), alachlor (used as the commercially available formulation \"Lasso\" (trade mark), an emulsifiable concentrate containing 480g of alachlor per kilogram) and dimethenamid (used as the commercially available formulation \"Frontiere\" (trade mark), a flowable containing 900g/l active ingerident) were dissolved in water and sprayed at a volume rate of 187 litres/hectare on various test plots (10 square meters in area) either alone or in mixtures. The soil was a clay-loam, with a pH of 7, the experiments being conducted in June in Volga, Brookings, U.S.A. The various weed and crop species were drill sown and the various compositions were applied on the same day after drilling. Three replicates were performed and the efficacy of the various mixtures were determined by visual assessment of the percentage phytotoxicity in comparison with an untreated control. Assessment was made about 26 days after treatment. In the Tables which follow the dose is expressed in grammes per hectare and the figures in brackets represent the expected results according to the Colby formula."}, "Helianthus annuus": {"tested_on": "Helianthus annuus", "details": "A 37.5 g/ha alone", "protocol": "as §1"}, "Panicum miliaceum": {"tested_on": "Panicum miliaceum", "details": "A 375 g/ha alone", "protocol": "as §1"}}}
{"compound": "CS(=O)(=O)c1cc(C(F)(F)F)ccc1C(=O)c1cnoc1C1CC1", "note": "[Compound A, 5-cyclopropyl-4-(2-methylsulphonyl-4-trifluoromethyl)benzoylisoxazole]", "values": [{"measurement": "percentage phytotoxicity", "setting": "Abutilon theophrasti", "result": 93, "unit": "%"}, {"measurement": "percentage phytotoxicity", "setting": "Helianthus annuus", "result": 18, "unit": "%"}, {"measurement": "percentage phytotoxicity", "setting": "Panicum miliaceum", "result": 65, "unit": "%"}]}
